Our source for the IC50 values is patent publication US20220081422A1 (Janssen Biotech, Inc., priority 2019, published 2022).

Experiment [1] addresses T1, human DHODH (Homo sapiens, UniProt Q02127).
T1 construct: purchased Proteros PR-0044
In words: DHODH enzymatic assay (DCIP absorbance, end-point). Type of experiment: biochemical. The conditions noted are these: purified human DHODH, DCIP as final electron acceptor, end-point mode; read-out: hDHODH IC50. In a few lines: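 Purified human DHODH; end-point absorbance of DCIP reduction as terminal electron acceptor. Reaction started with substrate mix of 20 mM DHO, 5 mM CoQ6, 1 mM DCIP (substrate-solution concentrations) in […] pH 7.5, 150 mM NaCl, 0.5 mM EDTA, 0.1% Triton X-100.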

Experiment [2] concerns MOLM-13 cells. As to the kind of experiment: MOLM-13 cellular assay (CellTiter-Glo cell viability). The format is cell-based. As to conditions: Homo sapiens, MOLM-13, 72 h, 72 hours exposure, cell viability by CellTiter-Glo. The procedure, abridged:
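Cells seeded at 5,000/well and exposed to graded compound concentrations for 72 h at 37° C, 5% CO2 immediately after seeding. Viability read by CellTiter-Glo luminescence.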
For orientation: ATP-based viability assays read luminescence as a measure of living cells.

T1 sequence (Q02127 whole entry): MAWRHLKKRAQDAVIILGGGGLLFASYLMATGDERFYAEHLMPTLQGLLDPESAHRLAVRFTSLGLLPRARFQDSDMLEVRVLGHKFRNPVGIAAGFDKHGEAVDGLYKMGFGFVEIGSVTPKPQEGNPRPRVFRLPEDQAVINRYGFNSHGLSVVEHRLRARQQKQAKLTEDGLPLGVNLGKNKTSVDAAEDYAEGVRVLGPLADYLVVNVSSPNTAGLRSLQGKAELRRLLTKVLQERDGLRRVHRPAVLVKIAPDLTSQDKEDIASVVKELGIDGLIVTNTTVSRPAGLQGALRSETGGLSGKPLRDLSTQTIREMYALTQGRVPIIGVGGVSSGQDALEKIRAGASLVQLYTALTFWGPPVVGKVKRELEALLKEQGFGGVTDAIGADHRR

The IC50 is the point on the concentration scale where inhibition reaches its midpoint. `CCC[C@H](C)N1CN(c2c(F)cccc2Cl)C(=O)c2cc(F)c(-n3nc(CO)n(CC)c3=O)cc21` [Example 15, (S)-3-(2-Chloro-6-fluorophenyl)-7-(4-ethyl-3-(hydroxymethyl)-5-oxo-4,5-dihydro-1H-1,2,4-triazol-1-yl)-6-fluoro-1-(pentan-2-yl)-2,3-dihydroquinazolin-4(1H)-one]: the IC50 is 0.3 nM in experiment [1] and under 1.69 nM in experiment [2].

On to `CC[C@H](C)N1CN(c2c(F)cccc2Cl)C(=O)c2cc(F)c(-n3nc(CO)n(CC)c3=O)cc21` [Example 16, (S)-1-(sec-Butyl)-3-(2-chloro-6-fluorophenyl)-7-(4-ethyl-3-(hydroxymethyl)-5-oxo-4,5-dihydro-1H-1,2,4-triazol-1-yl)-6-fluoro-2,3-dihydroquinazolin-4(1H)-one], for which the figures for the IC50 in experiment [1] and in experiment [2] were 0.3 nM and under 1.69 nM, respectively.

With `CCn1c(CO)nn(-c2cc3c(cc2F)C(=O)N(c2c(F)cccc2Cl)CN3[C@@H](C)C2CCCCC2)c1=O` [Example 17, (S)-3-(2-Chloro-6-fluorophenyl)-1-(1-cyclohexylethyl)-7-(4-ethyl-3-(hydroxymethyl)-5-oxo-4,5-dihydro-1H-1,2,4-triazol-1-yl)-6-fluoro-2,3-dihydroquinazolin-4(1H)-one], the IC50 in experiment [1] is 0.1 nM; in experiment [2], under 1.69 nM.

Regarding `CCn1c(CO)nn(-c2cc3c(cc2F)C(=O)N(c2c(F)cccc2Cl)CN3CC(C)C)c1=O` [Example 18, 3-(2-Chloro-6-fluorophenyl)-7-(4-ethyl-3-(hydroxymethyl)-5-oxo-4,5-dihydro-1H-1,2,4-triazol-1-yl)-6-fluoro-1-isobutyl-2,3-dihydroquinazolin-4(1H)-one], the IC50 in experiment [1] came out at 2 nM; in experiment [2] it was 3.99 nM.

Consider `CCn1c(CO)nn(-c2cc3c(cc2F)C(=O)N(c2c(F)cccc2Cl)CN3C2CCC2)c1=O` [Example 19, 3-(2-Chloro-6-fluorophenyl)-1-cyclobutyl-7-(4-ethyl-3-(hydroxymethyl)-5-oxo-4,5-dihydro-1H-1,2,4-triazol-1-yl)-6-fluoro-2,3-dihydroquinazolin-4(1H)-one], for which the IC50 in experiment [1] is 3 nM; in experiment [2] it was 2.57 nM.

On to `CCCCN1CN(c2c(F)cccc2Cl)C(=O)c2cc(F)c(-n3nc(CO)n(CC)c3=O)cc21` [Example 20, 1-Butyl-3-(2-chloro-6-fluorophenyl)-7-(4-ethyl-3-(hydroxymethyl)-5-oxo-4,5-dihydro-1H-1,2,4-triazol-1-yl)-6-fluoro-2,3-dihydroquinazolin-4(1H)-one], for which the IC50 was 5 nM in experiment [1] and 10.2 nM in experiment [2].

Take `CCn1c(CO)nn(-c2cc3c(cc2F)C(=O)N(c2c(F)cccc2Cl)CN3CC2CCCCC2)c1=O` [Example 21, 3-(2-Chloro-6-fluorophenyl)-1-(cyclohexylmethyl)-7-(4-ethyl-3-(hydroxymethyl)-5-oxo-4,5-dihydro-1H-1,2,4-triazol-1-yl)-6-fluoro-2,3-dihydroquinazolin-4(1H)-one]: the values for the IC50 in experiment [1] and in experiment [2] were 6 nM and 22.9 nM, respectively.

As to `CCCN1CN(c2c(F)cccc2Cl)C(=O)c2cc(F)c(-n3nc(CO)n(CC)c3=O)cc21` [Example 22, 3-(2-Chloro-6-fluorophenyl)-7-(4-ethyl-3-(hydroxymethyl)-5-oxo-4,5-dihydro-1H-1,2,4-triazol-1-yl)-6-fluoro-1-propyl-2,3-dihydroquinazolin-4(1H)-one], the results for the IC50 in experiment [1] and in experiment [2] were 4 nM and 5.49 nM, respectively.

Take `CCn1c(CO)nn(-c2nc3c(cc2F)C(=O)N(c2c(F)cccc2Cl)CN3[C@@H](C)C2OCCCO2)c1=O` [Example 23, (S)-1-(1-(1,3-Dioxan-2-yl)ethyl)-3-(2-chloro-6-fluorophenyl)-7-(4-ethyl-3-(hydroxymethyl)-5-oxo-4,5-dihydro-1H-1,2,4-triazol-1-yl)-6-fluoro-2,3-dihydropyrido[2,3-d]pyrimidin-4(1H)-one]: the values for the half-inhibitory concentration (IC50) in experiment [1] and in experiment [2] were 3 nM and 6.64 nM, respectively.

Take `CCC[C@H](C)N1CN(c2c(F)cccc2Cl)C(=O)c2cc(F)c(-n3nc(CO)n(CC)c3=O)nc21` [Example 24, (S)-3-(2-Chloro-6-fluorophenyl)-7-(4-ethyl-3-(hydroxymethyl)-5-oxo-4,5-dihydro-1H-1,2,4-triazol-1-yl)-6-fluoro-1-(pentan-2-yl)-2,3-dihydropyrido[2,3-d]pyrimidin-4(1H)-one]: the 50% inhibitory concentration (IC50) is 0.4 nM in experiment [1] and under 1.69 nM in experiment [2].

On to `CCn1c(CO)nn(-c2cc3c(cc2F)C(=O)N(c2cc(C)ccc2F)CN3C(C)C)c1=O` [Example 26, 7-(4-Ethyl-3-(hydroxymethyl)-5-oxo-4,5-dihydro-1H-1,2,4-triazol-1-yl)-6-fluoro-3-(2-fluoro-5-methylphenyl)-1-isopropyl-2,3-dihydroquinazolin-4(1H)-one], for which the 50% inhibitory concentration (IC50) in experiment [1] worked out at 20 nM; in experiment [2] it was 27.5 nM.

For `CCn1c(CO)nn(-c2cc3c(cc2F)C(=O)N(c2c(F)cncc2C#N)CN3C(C)C)c1=O` [Example 27, 4-(7-(4-Ethyl-3-(hydroxymethyl)-5-oxo-4,5-dihydro-1H-1,2,4-triazol-1-yl)-6-fluoro-1-isopropyl-4-oxo-1,4-dihydroquinazolin-3(2H)-yl)-5-fluoronicotinonitrile], the IC50 in experiment [1] is 30 nM; in experiment [2] it was 48.1 nM.

Turning to `CCn1c(CO)nn(-c2cc3c(cc2F)C(=O)N(c2c(C)ccnc2Cl)CN3C(C)C)c1=O` [Example 28, 3-(2-Chloro-4-methylpyridin-3-yl)-7-(4-ethyl-3-(hydroxymethyl)-5-oxo-4,5-dihydro-1H-1,2,4-triazol-1-yl)-6-fluoro-1-isopropyl-2,3-dihydroquinazolin-4(1H)-one], the IC50 in experiment [1] was determined as 20 nM; in experiment [2], 36.1 nM.

Turning to `CCn1c(CO)nn(-c2cc3c(cc2F)C(=O)N(c2c(F)cncc2Cl)CN3C(C)C)c1=O` [Example 29, 3-(3-Chloro-5-fluoropyridin-4-yl)-7-(4-ethyl-3-(hydroxymethyl)-5-oxo-4,5-dihydro-1H-1,2,4-triazol-1-yl)-6-fluoro-1-isopropyl-2,3-dihydroquinazolin-4(1H)-one], the 50% inhibitory concentration (IC50) came out at 20 nM in experiment [1] and 27.3 nM in experiment [2].

As for `CCn1c(CO)nn(-c2cc3c(cc2F)C(=O)N(c2nc(OC)ccc2Cl)CN3C(C)C)c1=O` [Example 30, 3-(3-Chloro-6-methoxypyridin-2-yl)-7-(4-ethyl-3-(hydroxymethyl)-5-oxo-4,5-dihydro-1H-1,2,4-triazol-1-yl)-6-fluoro-1-isopropyl-2,3-dihydroquinazolin-4(1H)-one], the IC50 in experiment [1] amounted to 3 nM; in experiment [2] it was 3.39 nM.

On to `CC[C@H](C)N1CN(c2c(F)cccc2Cl)C(=O)c2cc(F)c(-n3nc(CO)n(CC)c3=O)nc21` [Example 31, (S)-1-(sec-Butyl)-3-(2-chloro-6-fluorophenyl)-7-(4-ethyl-3-(hydroxymethyl)-5-oxo-4,5-dihydro-1H-1,2,4-triazol-1-yl)-6-fluoro-2,3-dihydropyrido[2,3-d]pyrimidin-4(1H)-one], for which the IC50 in experiment [1] was 0.7 nM; in experiment [2], 0.962 nM.

For `CCn1c(CO)nn(-c2cc3c(cc2F)C(=O)N(c2c(C)cnc(OC)c2Cl)CN3C(C)C)c1=O` [Example 32, 3-(3-Chloro-2-methoxy-5-methylpyridin-4-yl)-7-(4-ethyl-3-(hydroxymethyl)-5-oxo-4,5-dihydro-1H-1,2,4-triazol-1-yl)-6-fluoro-1-isopropyl-2,3-dihydroquinazolin-4(1H)-one], the half-maximal inhibitory concentration (IC50) in experiment [1] amounted to 9 nM; in experiment [2], 5.96 nM.
